{"source": "patent US10722527B2", "about": "“Abiraterone acetate lipid formulations” (Capsugel Belgium NV, priority 2015, dated 2020)", "experiment": "Equilibrium solubility of crystalline active in digestion medium / digested placebo LMP formulation", "type": "physicochemical", "conditions": "37 °C, thermodynamic from solid", "method": "In both cases, the majority of the active was solubilized in a lipid phase that phase-separated on centrifugation of the samples and most likely consisting of larger lipophilic colloids including multi-lamellar vesicles. Active drug in the aqueous phase (consisting of BS/PL mixed-micelles, lipid-enriched BS/PL mixed micelles and small vesicles) is considered the most readily available form for absorption.\nIn vitro digestion tests were performed as follows: 1 g of the active-containing formulation was dispersed in 40 mL fasted intestinal medium (2 mM Tris-maleate, 1.4 mM CaCl2.2H2O, and 150 mM NaCl, 3 mM sodium taurodeoxycholate and 0.75 mM phosphatidylcholine, 37° C.) using a pH-stat titrator as described by the LFCS Consortium (Williams, H D. et al., J. Pharm. Sci. 101 (2012), p. 3360-3380). […] Active concentration in the aqueous phase was measured by HPLC. […] Also thermodynamic solubility of the active was evaluated in digested placebo formulations for determining solubility in digested lipidic colloidal phases.", "note": "Where two headings read alike, the source gives them in different places."}
{"smiles": "CC(=O)O[C@H]1CC[C@@]2(C)C(=CC[C@@H]3[C@@H]2CC[C@]2(C)C(c4cccnc4)=CC[C@@H]32)C1", "note": "[Abiraterone acetate]", "values": [{"measurement": "solubility thermodynamic", "setting": "pH 6.5, aqueous with cosolvent or surfactant or cyclodextrin, digested placebo LMP formulation, read-out: Equilibrium solubility of crystalline active in digested LMP formulations", "result": 121, "unit": "µg/mL"}, {"measurement": "solubility thermodynamic", "setting": "pH 6.5, fassif, same fasted intestinal medium, without digested lipid formulation, read-out: Equilibrium solubility of the crystalline active in digestion medium", "result": 27, "unit": "µg/mL"}]}
